Measured values from patent EP0103381B1, “Substituted anthra(1,9-cd)pyrazol-6(2H)-ones” (WARNER-LAMBERT COMPANY, priority 1982, dated 1984).

Key:
[1] = tested on: lymphocytic leukemia P388; experiment: in vivo lymphocytic leukemia P388 test; parameters: species or system mice; conditions: Mus musculus, P388, ip, 720 h, two single doses four days apart, read-out: T/C × 100 (Percent); for response vs control in vivo at 25 mg/kg: P388, Dose 25 mg/kg intraperitoneally; for response vs control in vivo at 6.25 mg/kg: P388, Dose 6.25 mg/kg intraperitoneally; for response vs control in vivo at 12.5 mg/kg: P388, Dose 12.5 mg/kg intraperitoneally; for response vs control in vivo at 50 mg/kg: P388, Dose 50 mg/kg intraperitoneally; for response vs control in vivo at 100 mg/kg: P388, Dose 100 mg/kg intraperitoneally; for response vs control in vivo at 0.78 mg/kg: P388, Dose 0.78 mg/kg intraperitoneally; for response vs control in vivo at 1.56 mg/kg: P388, Dose 1.56 mg/kg intraperitoneally; for response vs control in vivo at 0.39 mg/kg: P388, Dose 0.39 mg/kg intraperitoneally; for response vs control in vivo at 3.12 mg/kg: P388, Dose 3.12 mg/kg intraperitoneally
Procedure: The in vivo lymphocytic leukemia P388 test is carried out by the United States National Cancer Institute. The animals used are either male or female CD2F, mice. There are six to seven animals per test group. The tumor transplant is by intraperitoneal injection of dilute ascitic fluid containing cells of lymphocytic leukemia P388. The test compounds are administered intraperitoneally in two single doses with a four-day interval between doses at various dose levels following tumor inoculation. The animals are weighed and survivors are recorded on a regular basis for 30 days. A ratio of survival time for treated (T)/ control (C) animals is calculated. The criterion for efficacy is T/C x 100 > 125%. The positive control compound in this test is 1,4-dihydroxy-5,8-[bis[[2-[(2-hydroxyethyl)amino]-ethyl]amino]-9,10-anthracene- dione given at dosages ranging from 12.0 to 0.075 mg/kg. See Cancer Chemotherapy Reports, Part 3, 3, 1 (1972) for a comprehensive discussion of the protocol.

Penicillium avellaneum = experiment: agar plate paper-disc inhibition zone screening; format: cell-based; conditions: Hamigera avellanea; Dose 3.0 mg/ml; read-out: Inhibition Zone Diameter mm (Dose mg/ml) P. Avellaneum
In short: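 Mycelia and spores from a six-day 28°C agar culture, suspended in saline with 0.05% Tween 80 at 20% transmittancy, were seeded into molten agar trays. Compounds at 3,000, 1,000, 500, 100 and 10 mcg/ml (solvent <10%) were applied on 12.7 mm paper discs. After at least 20-24 h incubation, inhibition zone diameter was measured in mm.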

Bacillus subtilis = experiment: agar plate paper-disc inhibition zone screening; format: cell-based; conditions: read-out: Inhibition Zone Diameter mm (Dose mg/ml) B. Subtilis; for zone of inhibition at 3000 µg/mL: Dose 3.0 mg/ml; for zone of inhibition at 1000 µg/mL: Dose 1.0 mg/ml
In short: (§1)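 Inoculum: saline suspension, 20-35% transmittancy, in molten agar. Discs 12.7 mm, compound 3,000/1,000/500/100/10 mcg/ml, solvent <10%. 37°C, 18-20 h; zone diameter in mm.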

Streptococcus faecalis = experiment: agar plate paper-disc inhibition zone screening; format: cell-based; conditions: Enterococcus faecalis, read-out: Inhibition Zone Diameter mm (Dose mg/ml) S. Faecalis; for zone of inhibition at 3000 µg/mL: Dose 3.0 mg/ml
In short: as §1

Escherichia coli = experiment: agar plate paper-disc inhibition zone screening; format: cell-based; conditions: read-out: Inhibition Zone Diameter mm (Dose mg/ml) E. Coli; for zone of inhibition at 3000 µg/mL: Dose 3.0 mg/ml; for zone of inhibition at 500 µg/mL: Dose 0.5 mg/ml; for zone of inhibition at 1000 µg/mL: Dose 1.0 mg/ml
In short: as §1

Aerobacter aerogenes = experiment: agar plate paper-disc inhibition zone screening; format: cell-based; conditions: Klebsiella aerogenes, read-out: Inhibition Zone Diameter mm (Dose mg/ml) A. Aerogenes; for zone of inhibition at 3000 µg/mL: Dose 3.0 mg/ml; for zone of inhibition at 500 µg/mL: Dose 0.5 mg/ml
In short: as §1

SMILES | response vs control in vivo at 25 mg/kg [1] [%] | zone of inhibition at 3000 µg/mL (Penicillium avellaneum) [mm] | zone of inhibition at 3000 µg/mL (Streptococcus faecalis) [mm] | zone of inhibition at 3000 µg/mL (Escherichia coli) [mm] | zone of inhibition at 3000 µg/mL (Aerobacter aerogenes) [mm] | response vs control in vivo at 6.25 mg/kg [1] [%] | response vs control in vivo at 12.5 mg/kg [1] [%] | response vs control in vivo at 50 mg/kg [1] [%] | zone of inhibition at 3000 µg/mL (Bacillus subtilis) [mm] | zone of inhibition at 500 µg/mL (Aerobacter aerogenes) [mm] | response vs control in vivo at 1.56 mg/kg [1] [%] | zone of inhibition at 500 µg/mL (Escherichia coli) [mm] | other results
CCN(CC)CCNc1ccc2c3c(nn2CCO)-c2c(O)ccc(O)c2C(=O)c13 [Example 35, 5-[[2-(Diethylamino)ethyl]amino]-7,10-dihydroxy-2-(2-hydroxyethyl)anthra[1,9-cd]pyrazol-6(2H)-one] | 128 | 0 | 14 | 0 | 0 | – | – | – | – | – | – | – | response vs control in vivo at 37.5 mg/kg ([1]; P388, Dose 37.5 mg/kg intraperitoneally): 135%; response vs control in vivo at 75 mg/kg ([1]; P388, Dose 75 mg/kg intraperitoneally): 135%; response vs control in vivo at 150 mg/kg ([1]; P388, Dose 150 mg/kg intraperitoneally): 155%; response vs control in vivo at 200 mg/kg ([1]; P388, Dose 200 mg/kg intraperitoneally): 167%; response vs control in vivo at 300 mg/kg ([1]; P388, Dose 300 mg/kg intraperitoneally): 177%; response vs control in vivo at 400 mg/kg ([1]; P388, Dose 400 mg/kg intraperitoneally): 190%; zone of inhibition at 500 µg/mL (Bacillus subtilis; Dose 0.5 mg/ml): 14 mm
O=C1c2c(O)ccc(O)c2-c2nn(CCO)c3ccc(NCCNCCO)c1c23 [Example 36, 5-[[2-[(2-Hydroxyethyl)amino]ethyl]amino]-7,10-dihydroxy-2-(2-hydroxyethyl)anthra[1,9-cd]pyrazol-6(2H)- . one] | – | 0 | 0 | 0 | 0 | 143 | 158 | 163 | 17 | – | – | – | response vs control in vivo at 100 mg/kg [1]: 172%
NCCNc1ccc2c3c(nn2CCO)-c2c(O)ccc(O)c2C(=O)c13 [Example 37, 5-[(2-Aminoethyl)amino]-7,10-dihydroxy-2-(2-hydroxyethyl)anthra[1,9-cd]pyrazol-6(2H)-one] | 146 | 0 | 0 | 0 | – | 135 | 145 | 162 | – | – | – | – | zone of inhibition at 1000 µg/mL (Bacillus subtilis): 15 mm; zone of inhibition at 1000 µg/mL (Aerobacter aerogenes; Dose 1.0 mg/ml): 15 mm
CN(C)CCNc1ccc2c3c(nn2CCO)-c2c(O)ccc(O)c2C(=O)c13 [Example 39] | 153 | 0 | 14 | 0 | – | – | 124 | 180 | 0 | 15 | – | – | response vs control in vivo at 100 mg/kg [1]: 225%
CCN(CC)CC(O)Cn1nc2c3c(c(NCCNCCO)ccc31)C(=O)c1c(O)ccc(O)c1-2 (stereo not drawn) [Example 43, 2-[3-(Diethylamino)-2-hydroxypropyl]-7,10-dihydroxy-5-[[2-[(2-hydroxyethyl)amino]ethyl]amino]-anthra[1,9-cd]pyrazol-6(2H)-one] | – | 0 | 15 | – | – | – | – | – | 14 | 16 | 139 | 16 | response vs control in vivo at 0.78 mg/kg [1]: 132%
CCN(CC)CCNc1ccc2c3c(nn2CC(O)CN(CC)CC)-c2c(O)ccc(O)c2C(=O)c13 (stereo not drawn) [Example 44] | 131 | 0 | 14 | – | 14 | – | 128 | 131 | 15 | – | – | 15 | –
CCN(CC)CC(O)Cn1nc2c3c(c(NCCN)ccc31)C(=O)c1c(O)ccc(O)c1-2 (stereo not drawn) [Example 45, 5-[(2-Aminoethyl)amino]-2-[3-(diethylamino)-2-hydroxypropyl]-7,10-dihydroxyanthra[1,9-cd]pyrazol-6(2H)-one] | – | 0 | 0 | – | – | – | – | – | 14 | 15 | 157 | 15 | response vs control in vivo at 0.39 mg/kg [1]: 135%
CN(C)CCCn1nc2c3c(c(NCCCN)ccc31)C(=O)c1c(O)ccc(O)c1-2 [Example 47, 5-[(3-Aminopropyl)amino]-2-[3-(dimethylamino)propyl]-7,10-dihydroxyanthra[1,9-cd]pyrazol-6(2H)-one] | 194 | 0 | 0 | 14 | 14 | – | 173 | – | 14 | – | – | – | –
O=C1c2c(O)ccc(O)c2-c2nn(CCNCCO)c3ccc(NCCNCCO)c1c23 [Example 54, 7,10-Dihydroxy-2-[2-[12-hydroxyethyl)amino]ethyl]-5-[[2-[(2-hydroxyethyl)amino]ethyl]amino]anthra[1,9-cdlpyrazol-6(2H)-one] | 158 | 0 | 0 | – | 15 | 206 | – | 139 | 14 | – | 158 | – | response vs control in vivo at 3.12 mg/kg [1]: 187%; zone of inhibition at 1000 µg/mL (Escherichia coli): 14 mm
NCCNc1ccc2c3c(nn2CCNCCO)-c2c(O)ccc(O)c2C(=O)c13 [Example 55, 5-[(2-Aminoethyl)amino]-7,10-dihydroxy-2-[2-[(2-hydroxyethyl)amino]ethyl]anthra[1,9-cd]pyrazol-6(2H)-one] | – | 0 | 0 | – | 15 | – | – | – | 14 | – | 173 | – | response vs control in vivo at 0.39 mg/kg [1]: 175%; response vs control in vivo at 0.78 mg/kg [1]: 182%; zone of inhibition at 1000 µg/mL (Escherichia coli): 14 mm
CN(C)CCNc1ccc2c3c(nn2CCNCCO)-c2c(O)ccc(O)c2C(=O)c13 [Example 56, 5-[[2-(Dimethylamino)ethyl]amino]-7,10-dihydroxy-2-[2-[(2-hydroxyethyl)amino]ethyl]anthra[1,9-cd]pyrazol-6(2H)-one] | 88 | 0 | – | – | – | 165 | – | – | – | 14 | 161 | 14 | response vs control in vivo at 0.78 mg/kg [1]: 152%; response vs control in vivo at 3.12 mg/kg [1]: 165%; zone of inhibition at 1000 µg/mL (Bacillus subtilis): 14 mm; zone of inhibition at 1000 µg/mL (Streptococcus faecalis; Dose 1.0 mg/ml): 14 mm
